Values quoted from earlier work, collected in patent publication US20230345942A1, “CORONA VIRUS KILLING AGENT” (SANKEI CO., LTD., priority 2020, published 2023).

Experiments:
Influenza = test system: Influenza; design: key: ◯ Effective; ∇ Low efficacy; ⊚ Effective even in the presence of organic matter
Norovirus (alternative) = test system: Norovirus (alternative); design: key: ◯ Effective; ∇ Low efficacy; ⊚ Effective even in the presence of organic matter
Novel coronavirus = test system: Novel coronavirus; design: key: ◯ Effective; ∇ Low efficacy; ⊚ Effective even in the presence of organic matter
[1] = as qualified in the cell (undiluted solution / at usage concentration)

OCl [Sodium hypochlorite]
Antibacterial/fungal activity (bacteria, fungi): Broad range | Antiviral activity: Influenza (Influenza): ◯ | Antiviral activity: Norovirus (alternative) (Norovirus (alternative)): ◯ | Antiviral activity: Novel coronavirus (Novel coronavirus): ◯ | Safety [1]: hazardous

CCO [Disinfecting ethanol, Ethanol]
Antibacterial/fungal activity (bacteria, fungi): Broad range | Antiviral activity: Influenza (Influenza): ◯ | Antiviral activity: Norovirus (alternative) (Norovirus (alternative)): ∇ | Antiviral activity: Novel coronavirus (Novel coronavirus): ◯ | Safety [1]: Flammable

CCO [alcohol]
Concentration required for an inactivation effect on enveloped viruses (enveloped viruses): ≥ 70 % (v/v)
